Data reported in patent publication US11548880B2, “Modulators of hemoglobin” (Global Blood Therapeutics, Inc., priority 2018, dated 2023).

What was measured:
Rat PK, oral gavage = format: in vivo, Sprague-Dawley rats; details: oral gavage 10 mg/kg; for blood plasma ratio / half-life: male, Sprague-Dawley, rat, po, 10 mg/kg; for blood plasma ratio: whole blood and plasma; for half-life: whole blood
Description: Rat PK: A group of fasted male Sprague-Dawley rats were dosed via oral gavage at 10 mg/kg with test articles formulated in 0.5% methylcellulose suspension. Blood samples were collected through jugular vein at pre-selected time points. Blood samples were prepared by protein precipitation with ACN, vortexed and then centrifuged before supernatants were transferred for bioanalysis. Test article concentrations were measured by HPLC-MS-MS. Pharmacokinetic parameters were calculated using non-compartment analysis. The blood/plasma ratio was calculated by dividing the AUClast (i.e., the area under the curve calculated from t=0 to the last detectable time-point) in blood by the AUClast in plasma. The T1/2 was calculated via a linear regression of the terminal phase of the blood-time concentration profile.

Hb = molecular target: T1, Hb (Homo sapiens, UniProt P68871+P69905); assay: Whole blood assay: oxygen equilibrium curves (Hemox Analyzer), change in p50; format: cell-based; details: whole blood incubated 1 h at 37° C., equimolar ratio of hemoglobin to compound
T1 construct: from tissue; host or cells: whole blood
Description: Whole blood assay: Oxygen equilibrium curves (OECs) were collected using a TCS Hemox Analyzer (TCS Scientific Company, New Hope, Pa., USA) to measure changes in the binding affinity of O2 to Hb. Whole blood was incubated for 1 h at 37° C. with the indicated compounds in an equimolar ratio of hemoglobin to compound and diluted into TES (2-[[1,3-dihydroxy-2-(hydroxymethyl)propan-2-yl]amino]ethanesulfonic acid)/saline buffer prior to measurements. For example, for whole blood at 20% hematocrit [Hct], which corresponds to 1 mM Hb, a compound concentration of 1 mM was used (for example, for compounds 1-5), and the incubated sample diluted 50- to 100-fold. The concentration for compounds 6-44 (Diastereomers 1 and 2) varied but remained in equimolar ratio to hemoglobin. The diluted samples were then oxygenated with compressed air within the Hemox Analyzer and the OECs were collected during deoxygenation as previously described (Guarnone et al., Haematologica, 1995, 80, 426-430). p 50 (partial pressure of O2 at which Hb is 50% saturated with O2) values were obtained using a non-linear regression analysis. Percentage change in p50 [Δp50(%)] was calculated as follows: Δp50(%)=[(p50 of control)−p50 with compound)/p50 control]×100.

PXR nuclear receptor = molecular target: T2, PXR nuclear receptor (Homo sapiens, UniProt O75469); assay: CYP (PXR) assay: PXR nuclear receptor activation in DPX2 reporter cells; format: cell-based; details: fold PXR activation, 24 h
T2 construct: expressed in transfected cells; host or cells: DPX2 (stably transfected human hepatoma cells)
T2 sequence (O75469 1-434): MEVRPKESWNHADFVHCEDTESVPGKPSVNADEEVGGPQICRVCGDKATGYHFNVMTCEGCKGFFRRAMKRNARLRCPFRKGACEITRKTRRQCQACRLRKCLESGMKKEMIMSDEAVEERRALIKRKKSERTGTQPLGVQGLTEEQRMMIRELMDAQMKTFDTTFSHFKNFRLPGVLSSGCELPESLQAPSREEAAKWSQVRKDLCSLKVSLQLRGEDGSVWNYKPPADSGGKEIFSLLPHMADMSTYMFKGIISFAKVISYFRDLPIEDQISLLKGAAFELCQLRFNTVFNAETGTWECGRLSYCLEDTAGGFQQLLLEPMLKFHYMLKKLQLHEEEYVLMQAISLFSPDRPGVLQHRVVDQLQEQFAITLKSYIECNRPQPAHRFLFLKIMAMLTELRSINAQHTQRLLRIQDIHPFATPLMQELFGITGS
Description: CYP (PXR) Assay: PXR nuclear receptor activation utilizing stably-transfected human hepatoma cell lines (DPX2) were seeded in a 96-well plate. Twenty-four hours after seeding, the cells were treated with selected concentrations of compounds in duplicate wells, and cells then returned to the incubator for an additional 24 h. At the end of this incubation period, the number of viable cells/well were determined using Promega's Cell Titer Fluor cytotoxicity assay. Subsequently, Promega's ONE-Glo were added to the same wells and reporter gene activity were assessed. The average luminescent units for each compound dose of two replicates were divided by the average for the DMSO solvent control to determine the fold-induction. In accordance with industry standard, a threshold of ≥2.5-fold was used to flag compounds that have in vivo CYP induction risk.

[1] = AUClast in blood divided by AUClast in plasma, rats
[2] = fasted male Sprague-Dawley rats, 0.5% methylcellulose suspension, blood

T1 sequence (P69905 2-142 limits assumed): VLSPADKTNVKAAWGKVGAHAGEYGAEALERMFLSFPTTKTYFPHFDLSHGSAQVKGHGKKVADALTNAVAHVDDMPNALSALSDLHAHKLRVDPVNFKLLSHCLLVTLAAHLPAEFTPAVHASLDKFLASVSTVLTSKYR
T1 sequence (P68871 2-147 limits assumed): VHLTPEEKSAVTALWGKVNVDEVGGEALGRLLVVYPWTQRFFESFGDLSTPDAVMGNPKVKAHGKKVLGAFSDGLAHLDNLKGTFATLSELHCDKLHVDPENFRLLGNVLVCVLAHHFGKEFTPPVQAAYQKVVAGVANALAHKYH

Row | SMILES | blood plasma ratio (Rat PK, oral gavage; [1]) | half-life (Rat PK, oral gavage; [2]) [h] | Delta-p50 (%) (Hb) | CYP (PXR) Flag (PXR nuclear receptor; at 30 μM) | CYP (PXR) Flag (PXR nuclear receptor; at 25 μM) | Blood/Plasma ratio (Rat PK, oral gavage; [1]) | T1/2 (Rat PK, oral gavage; [2]) [h]
1 | O=Cc1c(O)cccc1OC[C@@H]1COCCN1C(=O)c1ccccc1CO [Compound 23, 2-hydroxy-6-{[(3S)-4-[2-(hydroxymethyl)benzoyl]morpholin-3-yl]methoxy}benzaldehyde] | 59 | 62 | 70.92 |  |  |  | 
2 | O=Cc1c(O)cccc1OC[C@@H]1COCCN1C(=O)c1cccnc1CO [Compound 12, (S)-2-hydroxy-6-((4-(2-(hydroxymethyl)nicotinoyl)morpholin-3-yl)methoxy)benzaldehyde] | 131 | 58 | 76.7 | N (PXR activation < 2.5-fold) |  |  | 
3 | O=Cc1c(O)cccc1OC[C@@H]1COCCN1C(=O)c1ccccc1 [Reference Compound B, reference compound] | 98 | 29.8 |  | Y (PXR activation ≥ 2.5-fold) |  |  | 
4 | O=Cc1c(O)cccc1OCC1CSCCN1C(=O)c1cccnc1CO (single isomer, unassigned) [Compound 13 (Enantiomer 1), 2-hydroxy-6-((4-(2-(hydroxymethyl)nicotinoyl)-thiomorpholin-3-yl)-methoxy)benzaldehyde] | 230 | 88 | 80.6 | N (PXR activation < 2.5-fold) |  |  | 
5 | O=Cc1c(O)cccc1OCC1CSCCN1C(=O)c1ccccc1CO (single isomer, unassigned) [40 (Enantiomer 2)] | 424 | 117 | 83.36 |  |  |  | 
6 | Cc1ncccc1C(=O)N1CCCC[C@H]1COc1cccc(O)c1C=O [Reference Compound C, reference compound] |  |  |  |  | Y^1 (PXR activation ≥ 2.5-fold) |  | 
7 | O=Cc1c(O)cccc1OCC1CSCCN1C(=O)c1cccnc1CCO (single isomer, unassigned) [10 (Enantiomer 2)] | 212 | 112 | 87.3 |  |  |  | 
8 | CC(C)(O)Cc1ncccc1C(=O)N1CCOC[C@H]1COc1cccc(O)c1C=O [Compound 39, 2-hydroxy-6-{[(3S)-4-[2-(2-hydroxy-2-methylpropyl)pyridine-3-carbonyl]morpholin-3-yl]methoxy}benzaldehyde] | 52 | 52 | 77.98 |  |  |  | 
9 | O=Cc1c(O)cccc1OC[C@@H]1CCCCN1C(=O)c1cccnc1 [Reference Compound A, reference compound] | 75 | 29 |  | Y (PXR activation ≥ 2.5-fold) |  |  | 
10 | O=Cc1c(O)cccc1OC[C@@H]1CCCCN1C(=O)c1cccnc1CO [Compound 11, (S)-2-hydroxy-6-((1-(2-(hydroxymethyl)nicotinoyl)piperidin-2-yl)methoxy)benzaldehyde] | 126 | 55 | 79.3 |  |  |  | 
11 | O=Cc1c(O)cccc1OC[C@@H]1CCCCN1C(=O)c1cccnc1C(O)CO (stereo partly drawn) [Compound 36, 2-{[(2S)-1-[2-(1,2-dihydroxyethyl)pyridine-3-carbonyl]piperidin-2-yl]methoxy}-6-hydroxybenzaldehyde] | 115 | 56 | 77.04 |  |  |  | 
12 | O=Cc1c(O)cccc1OC[C@@H]1COCCN1C(=O)c1cccnc1CCO [Compound 8, (S)-2-hydroxy-6-((4-(2-(2-hydroxyethyl)nicotinoyl)morpholin-3-yl)methoxy)benzaldehyde] | 105 | 69 | 79.8 | N (PXR activation < 2.5-fold) |  |  | 
13 | O=Cc1c(O)cccc1OC[C@@H]1CCCCN1C(=O)c1cccnc1CCO [Compound 1, (S)-2-hydroxy-6-((1-(2-(2-hydroxyethyl)nicotinoyl)piperidin-2-yl)methoxy)benzaldehyde] | 162 | 58 | 77.3 |  | N^1 (PXR activation < 2.5-fold) |  | 
14 | O=Cc1c(O)cccc1OC[C@@H]1CCCCN1C(=O)c1cccnc1CCN1CCCC1 [Compound 4, (S)-2-hydroxy-6-((1-(2-(2-(pyrrolidin-1-yl)ethyl)nicotinoyl)piperidin-2-yl)methoxy)benzaldehyde] |  |  | 75.5 |  |  |  | 
15 | O=Cc1c(O)cccc1OC[C@@H]1CCCCN1C(=O)c1ccccc1C(O)CO (single isomer, unassigned) [34 (Diastereomer 1)] |  |  | 80.43 |  |  |  | 
16 | O=Cc1c(O)cccc1OC[C@@H]1CCCCN1C(=O)c1nccnc1CCO [Compound 7, (S)-2-hydroxy-6-((1-(3-(2-hydroxyethyl)pyrazine-2-carbonyl)piperidin-2-yl)methoxy)benzaldehyde] |  |  | 62.7 |  |  |  | 
17 | COCCc1ncccc1C(=O)N1CCOC[C@H]1COc1cccc(O)c1C=O [Compound 20, 2-hydroxy-6-{[(3S)-4-[2-(2-methoxyethyl)pyridine-3-carbonyl]morpholin-3-yl]methoxy}benzaldehyde] | 45 | 65 | 78.32 |  |  |  | 
18 | O=Cc1c(O)cccc1OC[C@@H]1CSCCN1C(=O)c1ccccc1C(O)CO (single isomer, unassigned) [35 (Diastereomer 2)] |  |  | 83.1 |  |  | 636 | 89
19 | O=Cc1c(O)cccc1OC[C@@H]1CSCCN1C(=O)c1ccccc1C(O)CO (single isomer, unassigned) [35 (Diastereomer 1)] | 493 | 102 | 81.35 |  |  |  | 
20 | N#CCCc1ccccc1C(=O)N1CCCC[C@H]1COc1cccc(O)c1C=O [Compound 15, (S)-3-(2-(2-((2-formyl-3-hydroxyphenoxy)methyl)piperidine-1-carbonyl)phenyl)propanenitrile] |  |  | 80.5 |  |  |  | 
